We go through 23 compounds from patent US5410031A, “Nucleoside cotransporter protein cDNA” (The Regents of the University of California Office of …, priority 1992, dated 1995).

Test [1] deals with SNST1c (chimeric Na+/nucleoside cotransporter SNST1). Put plainly: Uptake of radiolabelled substrates in Xenopus oocytes expressing SNST1c. The conditions noted are these: for transport of radiolabelled substrate by SNST1c: Xenopus oocytes injected with SNST1c RNA. It is filed as cell-based, rabbit. As for the experimental part: (§1) Oocyte injections. Xenopus oocytes were dissected and injected, and transport was measured as described below. Stage V and VI oocytes (Dumont, J. Morphol. 136:153-180 (1972)) from Xenopus laevis (Xenopus One, Ann Arbor, Mich.) were dissected and defolliculated as described by Hediger et al., Proc. Natl. Acad. Sci. USA 84:2634-2637 (1987) and Coady et al., Arch. Biochem. Biophys. 265:73-81 (1990), both of which are incorporated by reference herein. Briefly, oocytes were hand-dissected from ovarian tissue of adult female Xenopus laevis. Individual oocytes were obtained by gentle agitation in Barth's solution (Silbernagl, Physiol. Rev. 68:912-1007 (1988)) 1.0% collagenase (to remove follicular cells) and 0.1% trypsin inhibitor for 60 min followed by a 30 to 60 min incubation in 100 mM K2 HP04, pH 6.5, 0.1% BSA (modified from Dumont, J. Morphol. 136:153-179 (1972)). Oocytes were maintained in Barth's solution at 18° C. After 16 to 24 hr, the healthy oocytes were injected with 50 nl of water or mRNA (0.2 to 1 mg/ml) and incubated in Barth's solution with gentamicin at 18° C. for another 3 to 8 days.
(§2) Na^+ /nucleoside transporter activity was assayed by measuring the Na^+ -dependent uptake by the chimeric construct, SNST1c. […] Because of the sequence similarity to SGLT1, it was hypothesized that the transport would be Na^+ -dependent. Therefore, the uptake of ^22 Na^+ in the presence of potential substrates was monitored.
(§3) Measurements were made of [^3 H] uridine uptake in oocytes expressing SNST1c (FIG. 4A and 4B). Uptakes were measured over 5 min in a buffer containing either 100 mM NaCl, choline chloride or LiCl as described by Coady et al., Arch. Biochem. Biophys. 283:130-134 (1990), incorporated by reference herein. [All of the solutions contained 2 mM KCL, 1 mM MgCl2, 1 mM CaCl2, 10 mM HEPES/Tris, pH 7.5 and either 100 mM NaCl (Na^+ transport buffer) or 100 mM choline-Cl (choline transport buffer). The uptake solutions contained radiolabeled substrate while the wash solutions contained nonradioactive substrate. Oocytes were injected with water as a control, or SNST1c cRNA (50 ng). Oocytes were preincubated for 30 min in substrate-free choline transport buffer when uptakes in Na^+ and choline were to be compared. Transport of substrate was assayed by placing 4-6 oocytes in 0.5 ml of radioactive uptake solution, preceded by a 30 min preincubation in a Na^+ -free (100 mM choline-Cl) solution when Na^+ -dependent transport was to be measured. Transport was stopped by washing the oocytes five times with 4 ml of ice-cold choline solution containing excess unlabeled substrate. The oocytes were individually dissolved in 1.0 ml of 10% SDS and assayed for radioactivity. All data are expressed as mean ±SD. FIG. 4A indicates cation dependence of 1 μM [^3 H]uridine uptake in oocytes expressing SNST1c 4 days post-injection. In addition, inhibition of 0.6 μM [^3 H] uridine uptake in oocytes by 1 mM nucleosides was determined (FIG. 4B). Uptakes were measured in Na^+ containing buffer (Coady et al., supra) Oocytes were injected with water as a control, or SNST1c cRNA (50 ng) .

Test [2] has as its system SNST1c (expressed Na+/nucleoside cotransporter). The experiment in a line: Inhibition of [3H]uridine / radiolabeled nucleoside uptake in oocytes expressing SNST1c. It is filed as cell-based, rabbit. The conditions noted are these: for inhibition of [3H]uridine transport by SNST1c: 1 mM nucleoside, 0.6 μM [3H]uridine, Na+ containing buffer (FIG. 4B). Here is the method: as §3
Uptake of radiolabeled nucleosides into Xenopus oocytes was measured in the presence or absence of Na^+ as described above in Example 1, and in the presence and absence of 1 mM phloridzin (Sigma, St. Louis, Mo.). […]

The subject of test [3] is SNST1c (chimeric Na+/nucleoside cotransporter SNST1). Put plainly: 22Na+ uptake in the presence of potential substrates in oocytes expressing SNST1c. It is filed as cell-based, rabbit. The conditions noted are these: SNST1c-injected oocytes. As for the experimental part: as §1, §2, §3
The subject of test [4] is Na+/glucose cotransporter SGLT1. The conditions noted are these: SGLT1-injected oocytes.
Experimental: Xenopus oocytes were dissected and injected, and transport was measured as described below. […] Briefly, oocytes were hand-dissected from ovarian tissue of adult female Xenopus laevis. […] Oocytes were maintained in Barth's solution at 18° C. After 16 to 24 hr, the healthy oocytes were injected with 50 nl of water or mRNA (0.2 to 1 mg/ml) and incubated in Barth's solution with gentamicin at 18° C. for another 3 to 8 days.
[All of the solutions contained 2 mM KCL, 1 mM MgCl2, 1 mM CaCl2, 10 mM HEPES/Tris, pH 7.5 and either 100 mM NaCl (Na^+ transport buffer) or 100 mM choline-Cl (choline transport buffer). The uptake solutions contained radiolabeled substrate while the wash solutions contained nonradioactive substrate. Oocytes were injected with water as a control, or SNST1c cRNA (50 ng). […] Transport of substrate was assayed by placing 4-6 oocytes in 0.5 ml of radioactive uptake solution, preceded by a 30 min preincubation in a Na^+ -free (100 mM choline-Cl) solution when Na^+ -dependent transport was to be measured. […] The oocytes were individually dissolved in 1.0 ml of 10% SDS and assayed for radioactivity. All data are expressed as mean ±SD. […] Uptakes were measured in Na^+ containing buffer (Coady et al., supra) Oocytes were injected with water as a control, or SNST1c cRNA (50 ng) .
For test [5], the system named is Na+/glucose cotransporter protein. The conditions noted are these: cited from earlier work.
The test system of test [6] is Na+/nucleoside cotransport in the kidney brush border. The conditions noted are these: Lee et al. 1990; cited from earlier work.
The subject of test [7] is SNST1c (chimeric Na+/nucleoside cotransporter SNST1). The experiment in a line: Uptake of radiolabelled substrates in Xenopus oocytes expressing SNST1c. The class given is cell-based, rabbit. The conditions noted are these: oocytes printed as SGLT1c, n=6 oocytes.
In test [8] the test system is oocyte transporter (Na+/nucleoside cotransport in the oocyte membrane). The experiment in a line: Inhibition of endogenous Na+/nucleoside cotransport in the oocyte membrane. It is filed as cell-based, Xenopus laevis. The conditions noted are these: endogenous transport of the oocyte membrane. As for the experimental part: as §3, with “Transport was stopped by washing the oocytes five times with 4 ml of ice-cold choline solution containing excess unlabeled substrate.” left out, “FIG. 4A indicates cation dependence of 1 μM [^3 H]uridine uptake in oocytes expressing SNST1c 4 days post-injection. In addition, inhibition of 0.6 μM [^3 H] uridine uptake in oocytes by 1 mM nucleosides was determined (FIG. 4B).” left out

In the case of `N[C@@H](Cc1ccccc1)C(=O)O` [phenylalanine], in test [1], the “transport of radiolabelled substrate by SNST1c” value is “none of these was transported”.

Take `CC(O)C(=O)O` (stereo not shown) [lactate]: the “transport of radiolabelled substrate by SNST1c” value in test [1] is “none of these was transported”.

Regarding `Nc1ccn([C@@H]2O[C@H](CO)[C@@H](O)[C@H]2O)c(=O)n1` [cytidine], the “inhibition of [3H]uridine transport by SNST1c” value (“inhibition … by SNST1c” below) in test [2] is listed as “inhibited”.

In the case of `O=C(O)[C@@H]1CCCN1` [proline], the “transport of radiolabelled substrate by SNST1c” value in test [1] is given as “none of these was transported”.

Consider `O=C(O)CCCC[C@@H]1SC[C@@H]2NC(=O)N[C@@H]21` [biotin], for which, in test [1], the “transport of radiolabelled substrate by SNST1c” value is given as “none of these was transported”.

Take `O[C@H]1[C@H](O)[C@@H](O)[C@H](O)[C@@H](O)[C@H]1O` [myoinositol]: the “signal of 22Na+ uptake in the presence of potential substrate” value (“signal of 22Na+ uptake” below) in test [3] is on record as “no signals”.

Take `C[C@H](N)C(=O)O` [alanine]: the “transport of radiolabelled substrate by SNST1c” value in test [1] is on record as “none of these was transported”.

Regarding `O=c1ccn([C@@H]2O[C@H](CO)[C@@H](O)[C@H]2O)c(=O)[nH]1` [uridine], the 3H-uridine uptake in test [1] (SNST1c-injected oocytes, n=5 oocytes) is recorded as 722±108 fmol ^3 H-uridine/oocyte/hr; in test [4] (n=5 oocytes) it was 309±78 fmol ^3 H-uridine/oocyte/hr. Besides, the “transport of radiolabelled substrate by SNST1c” value in test [1] was “transported”. In addition, the “inhibition … by SNST1c” value in test [2] was “inhibited”.

Regarding `C[C@H](CCC(=O)O)[C@H]1CC[C@H]2[C@@H]3[C@H](O)C[C@@H]4C[C@H](O)CC[C@]4(C)[C@H]3C[C@H](O)[C@]12C` [cholate], the “signal of 22Na+ uptake” value in test [3] is given as “no signals”.

For `O=c1ccn([C@H]2C[C@H](O)[C@@H](CO)O2)c(=O)[nH]1` [2-deoxyuridine], the “inhibition … by SNST1c” value in test [2] was “inhibited”.

Consider `NCCCC[C@H](N)C(=O)O` [lysine], for which, in test [1], the “transport of radiolabelled substrate by SNST1c” value is given as “none of these was transported”.

In the case of `Nc1ncnc2c1ncn2[C@@H]1O[C@H](CO)[C@@H](O)[C@H]1O` [adenosine], the “inhibition … by SNST1c” value in test [2] was “inhibited”.

On to `CNC(C)(C)C(=O)O` [methyl-aminoisobutyric acid], for which the “transport of radiolabelled substrate by SNST1c” value in test [1] is “none of these was transported”.

For `O=C(CCc1ccc(O)cc1)c1c(O)cc(O[C@@H]2O[C@H](CO)[C@@H](O)[C@H](O)[C@H]2O)cc1O` [4' glycoside], the “activity as inhibitor of glucose transport” value in test [5] (Diedrich 1990) is “inactive”.

As to `O=C(O)CCC(=O)O` [succinate], in test [1], the “transport of radiolabelled substrate by SNST1c” value is “none of these was transported”.

In the case of `Nc1nc2c(ncn2[C@@H]2O[C@H](CO)[C@@H](O)[C@H]2O)c(=O)[nH]1` [guanosine], the “inhibition … by SNST1c” value in test [2] is “inhibited”.

`O=C(CCc1ccc(O)cc1)c1c(O)cc(O)cc1O[C@@H]1O[C@H](CO)[C@@H](O)[C@H](O)[C@H]1O` [Phloridzin]: the “inhibition of the expressed Na+/nucleoside cotransporter” value in test [2] (1 mM phloridzin, n=2, Xenopus oocytes) is listed as 87%. The IC50 in test [5] (mammalian intestine and kidney, competitive inhibition, read-out: concentration for fifty percent inhibition of sodium dependent sugar transport) is 5 µM. Moreover, in test [6], the “inhibition of Na+/nucleoside cotransport in the kidney brush border” value is recorded as “inhibits”.

As for `NCCS(=O)(=O)O` [taurine], the “transport of radiolabelled substrate by SNST1c” value in test [1] was “none of these was transported”.

With 3-O-methylglucose, the “transport of radiolabelled substrate by SNST1c” value in test [1] is listed as “none of these was transported”.

Take `CO[C@H]1O[C@H](CO)[C@@H](O)[C@H](O)[C@H]1O` [αMDG, α-methyl-D-glucopyranose]: in test [1], the “transport of radiolabelled substrate by SNST1c” value was “none of these was transported”. Also, the 14C-αMDG uptake came out at 70±19 pmol ^14 C-αMDG/oocyte/hr in test [4] (n=6 oocytes) and 0.5±0.1 pmol ^14 C-αMDG/oocyte/hr in test [7]. Further, the “signal of 22Na+ uptake” value in test [3] is reported as “no signals”.

In the case of `Cc1ncc(C[n+]2csc(CCO)c2C)c(N)n1` [thiamine], the “signal of 22Na+ uptake” value in test [3] is “no signals”.

Take `C[N+](C)(C)CC(=O)O` [betaine]: the “signal of 22Na+ uptake” value in test [3] is given as “no signals”.

Consider `Nc1ccn([C@H]2CC[C@@H](CO)O2)c(=O)n1` [dideoxycytidine], for which the “inhibition of the oocyte Na+/nucleoside transporter” value in test [8] is listed as “did not inhibit”.
